Measured values reported in paper PMC7046635, “A combined experimental and modelling approach for the Weimberg pathway optimisation” (Nature Communications, 2020).

Tests used:
[1] = molecular target: T1, α-Ketoglutarate semialdehyde dehydrogenase (KGSADH) (Caulobacter vibrioides, UniProt A0A0H3C801); assay: biochemical; parameters: product inhibition constants from fits of rate equations to initial rate kinetics of purified enzyme; conditions: read-out: K estimate (mM), inhibition
T1 construct: gene xylA; full-length gene in pET vector, N-terminal His tag, E. coli expression, Ni-TED and size exclusion
T1 sequence (A0A0H3C801 1-478): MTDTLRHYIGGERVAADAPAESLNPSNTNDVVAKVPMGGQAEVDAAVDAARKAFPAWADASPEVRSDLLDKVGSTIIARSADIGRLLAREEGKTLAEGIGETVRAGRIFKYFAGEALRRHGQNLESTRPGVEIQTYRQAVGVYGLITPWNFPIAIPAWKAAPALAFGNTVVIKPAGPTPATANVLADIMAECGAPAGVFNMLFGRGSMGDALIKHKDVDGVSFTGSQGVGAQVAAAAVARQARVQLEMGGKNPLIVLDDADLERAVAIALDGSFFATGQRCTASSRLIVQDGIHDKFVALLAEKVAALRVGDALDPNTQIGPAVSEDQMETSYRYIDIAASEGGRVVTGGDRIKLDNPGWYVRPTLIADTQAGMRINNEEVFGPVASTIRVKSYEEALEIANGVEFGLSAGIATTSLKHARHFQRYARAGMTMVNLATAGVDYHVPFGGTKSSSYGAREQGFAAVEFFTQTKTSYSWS
Method: (§1) All reactions completed the substrate conversion in roughly 90 min, which is in agreement with model simulations that include product inhibition (Fig. 2c). However, a much slower conversion was observed than predicted, based on initial rate kinetics excluding product inhibition (Supplementary Note 1 and Supplementary Figs. 9–11). […] For XLA and KDXD, the inhibition constants for D-xylonate and KGSA, respectively, had to be fitted based on the conversion data, as these enzymes are analysed in coupled enzyme assays. The progress curves after single enzyme additions and the required model adjustments are shown and discussed in Supplementary Note 1, all enzyme kinetic parameters are shown in Supplementary Tables 3–7. […] As a final step in model construction, the one-pot cascade model was established. The results of the sequential pathway reconstruction were used to define the ‘reference state’ for the one-pot cascade conversion of D-xylose to α-[compound left out] (Supplementary Note 1). For this, we added the five enzymes together, using amounts close to those used in the sequential experiment (2.5 μg ml^−1 XDH, 0.8 μg ml^−1 XLA, 8.67 μg ml^−1 XAD, 0.5 μg ml^−1 KDXD and 10 μg ml^−1 KGSADH). The conversion of 5 mM D-xylose via the pathway intermediates to α-[compound left out] was followed using NMR (Fig. 3a). The model based on the isolated reaction kinetics predicted the first part of the pathway accurately, i.e., D-xylose oxidation, lactone cleavage and D-xylonate dehydration. […] S2 enzyme (Supplementary Table 5), measured using an off-line colorimetric assay. […] Product inhibition for the individual metabolites and combination of metabolites was determined in initial rate experiments in a linked KGSADH assay (Supplementary Fig. 7), while for α-[compound left out] semialdehyde the binding constant was estimated in a conversion assay (Supplementary Fig. 10b).

[2] = molecular target: T2, D-xylonate dehydratase (XAD) (Caulobacter vibrioides, UniProt A0A0H3C6H6); assay: biochemical; parameters: product inhibition constants from fits of rate equations to initial rate kinetics of purified enzyme; conditions: read-out: K estimate (mM), inhibition
T2 construct: gene xylD; full-length gene in pET vector, N-terminal His tag, E. coli expression
T2 sequence (A0A0H3C6H6 1-591): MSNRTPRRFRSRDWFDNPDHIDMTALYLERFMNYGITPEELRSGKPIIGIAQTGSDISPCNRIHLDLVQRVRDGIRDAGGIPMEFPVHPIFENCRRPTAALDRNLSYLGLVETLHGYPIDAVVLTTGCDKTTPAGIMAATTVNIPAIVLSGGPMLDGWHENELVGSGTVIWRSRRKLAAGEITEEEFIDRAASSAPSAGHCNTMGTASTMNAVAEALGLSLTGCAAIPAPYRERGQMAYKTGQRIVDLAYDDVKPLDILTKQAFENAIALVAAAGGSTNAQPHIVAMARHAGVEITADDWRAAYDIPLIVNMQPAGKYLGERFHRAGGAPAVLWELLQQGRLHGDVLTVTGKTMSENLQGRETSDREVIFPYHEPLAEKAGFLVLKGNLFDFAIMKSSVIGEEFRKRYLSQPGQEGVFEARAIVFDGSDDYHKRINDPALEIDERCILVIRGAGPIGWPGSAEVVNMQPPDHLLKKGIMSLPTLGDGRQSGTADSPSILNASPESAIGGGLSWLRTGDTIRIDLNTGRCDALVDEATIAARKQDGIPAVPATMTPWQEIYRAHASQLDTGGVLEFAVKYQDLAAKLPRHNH
Method: as §1

[3] = molecular target: T3, D-xylose dehydrogenase (XDH) (Caulobacter vibrioides, UniProt B8H1Z0); assay: biochemical; parameters: product inhibition constants from fits of rate equations to initial rate kinetics of purified enzyme; conditions: read-out: K estimate (mM), inhibition
T3 construct: gene xylB; full-length gene in pET vector, N-terminal His tag, E. coli expression, Ni-TED and size exclusion
T3 sequence (B8H1Z0 1-248): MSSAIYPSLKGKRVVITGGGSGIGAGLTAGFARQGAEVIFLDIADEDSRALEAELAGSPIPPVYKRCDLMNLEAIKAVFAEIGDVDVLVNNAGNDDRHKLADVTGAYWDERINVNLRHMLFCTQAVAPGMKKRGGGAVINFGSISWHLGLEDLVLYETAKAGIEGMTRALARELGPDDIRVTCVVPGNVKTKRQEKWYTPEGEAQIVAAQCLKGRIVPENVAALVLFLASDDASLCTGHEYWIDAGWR

[4] = molecular target: T4, D-xylonate dehydratase (XAD) (Caulobacter vibrioides, UniProt Q9A9Z2); assay: discontinuous thiobarbituric acid assay; type: biochemical; conditions: 100 mM HEPES/NaOH pH 7.5, 37 °C, enzyme stored with 17 µmol MnCl2 per mg
T4 construct: gene xylD; full-length gene in pET vector, N-terminal His tag, E. coli expression, Ni-TED and size exclusion, stored with MnCl2
T4 sequence (Q9A9Z2 whole entry): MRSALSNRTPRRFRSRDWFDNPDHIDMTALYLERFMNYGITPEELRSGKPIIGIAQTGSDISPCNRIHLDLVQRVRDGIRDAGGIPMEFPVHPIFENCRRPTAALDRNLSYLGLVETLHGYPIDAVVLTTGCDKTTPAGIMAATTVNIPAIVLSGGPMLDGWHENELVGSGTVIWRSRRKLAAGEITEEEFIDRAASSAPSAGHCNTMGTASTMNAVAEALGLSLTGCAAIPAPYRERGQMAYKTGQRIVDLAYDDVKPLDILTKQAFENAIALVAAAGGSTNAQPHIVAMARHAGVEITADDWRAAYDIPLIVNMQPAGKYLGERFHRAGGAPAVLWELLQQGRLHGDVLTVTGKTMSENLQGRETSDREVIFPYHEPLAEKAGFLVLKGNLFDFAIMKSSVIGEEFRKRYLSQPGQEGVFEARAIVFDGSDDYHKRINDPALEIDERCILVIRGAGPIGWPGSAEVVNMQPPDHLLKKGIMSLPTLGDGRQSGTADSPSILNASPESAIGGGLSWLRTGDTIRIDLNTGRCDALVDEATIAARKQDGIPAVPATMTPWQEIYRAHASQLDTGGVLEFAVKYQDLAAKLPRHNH

Row | Structure (SMILES) | Ki [1] [mM] | Ki [3] [mM] | further results
1 | O=C(O)C(=O)C[C@H](O)CO [2-keto-3-deoxy-D-xylonate] | 0.021 |  | Ki [2]: 0.86 mM
2 | NC(=O)C1=CN([C@@H]2O[C@H](COP(=O)(O)OP(=O)(O)OC[C@H]3O[C@@H](n4cnc5c(N)ncnc54)[C@H](O)[C@@H]3O)[C@@H](O)[C@H]2O)C=CC1 [NADH] |  | 0.03 | 
3 | O=C(O)[C@H](O)[C@@H](O)[C@H](O)CO [D-xylonate] |  |  | Km [4]: 790 µM
4 | O=C1O[C@H](CO)[C@H](O)[C@H]1O [D-xylono-1,4-lactone] |  | 0.54 | 
5 | O=C(O)CCC(=O)C(=O)O [KG] | 0.28 |  | 
